Patent US20040152783A1, “Controlled absorption of admixed thyroid hormone formulations” (priority 2002, published 2004)
Read-outs that look alike come from different tables or passages of the source.

Test: Kinetics of T3 absorption after oral dosing in rats; total serum T3 by ELISA
Format: in vivo, Sprague-Dawley rats
Settings: for Peak of Delta Curve: oral solution; for Peak of Delta Curve / Deltamax / delta AUC / Tmax: serum TT3; for Percent T3 sodium (AUC 0-24) / Percent T3 sodium (Deltamax) / Percent T3 sodium (Peak of Delta Curve) / Percent T3 sodium (Tmax) / AUC* (0-24) / Deltamax / delta AUC / Tmax: oral; for AUC* (0-24): from mean delta TT3 curve above 0 hour value
Method: Defined μg/kg doses were delivered as oral solutions in 0.5% sodium bicarbonate buffer. Rats were dosed immediately following 0 hour serum collection. Serum was collected from rats at two, four, six, nine, 12 and 24 hours after dosing. Total serum T3 concentrations were determined by ELISA using a commercially available kit (Total Triiodothyronine (total T3) ELISA KIT, product #1700, ALPHA DIAGNOSTIC™, San Antonio, Tex.).

[1] = Example 1, T3 sodium 12 μg/kg vs T4 sodium 162 plus T3 sodium 12 μg/kg (13.5:1)
[2] = Example 2, T3 sodium 6 μg/kg vs T4 sodium 54 plus T3 sodium 6 μg/kg (9:1)
[3] = Example 3, T3 sodium 4 μg/kg vs T4 sodium 16 plus T3 sodium 4 μg/kg (4:1)
[4] = Example 4, T3 sodium 4 μg/kg vs T4 sodium 4 plus T3 sodium 4 μg/kg (1:1)
[5] = Example 5, T3 sodium 15 μg/kg vs T4 sodium 6 plus T3 sodium 15 μg/kg (0.4:1)
[6] = Example 6, T3 sodium 15 μg/kg vs T4 sodium 1.5 plus T3 sodium 15 μg/kg (0.1:1)

- Peak of Delta Curve (Example 1, T3 sodium 12 μg/kg alone vs T4 sodium 162 μg/kg plus T3 sodium 12 μg/kg (T4:T3 13.5:1)): 142 ng/dL
- Percent T3 sodium (AUC 0-24) [1]: 100%
- Percent T3 sodium (Deltamax) [1]: 100%
- Percent T3 sodium (Peak of Delta Curve) [1]: 100%
- Percent T3 sodium (Tmax) [1]: 100%
- AUC* (0-24) [1]: 1,469 ng/dLh
- Deltamax [1]: 156 ng/dL
- delta AUC [1]: 1,471 ng/dL·hr
- Peak of Delta Curve (Example 2, T3 sodium 6 μg/kg alone vs T4 sodium 54 μg/kg plus T3 sodium 6 μg/kg (T4:T3 9:1)): 232 ng/dL
- Percent T3 sodium (AUC 0-24) [2]: 100%
- Percent T3 sodium (Deltamax) [2]: 100%
- Percent T3 sodium (Peak of Delta Curve) [2]: 100%
- Percent T3 sodium (Tmax) [2]: 100%
- AUC* (0-24) [2]: 2,212 ng/dLh
- Deltamax [2]: 232 ng/dL
- delta AUC [2]: 2,384 ng/dL·hr
- Peak of Delta Curve (Example 3, T3 sodium 4 μg/kg alone vs T4 sodium 16 μg/kg plus T3 sodium 4 μg/kg (T4:T3 4:1)): 65 ng/dL
- Percent T3 sodium (AUC 0-24) [3]: 100%
- Percent T3 sodium (Deltamax) [3]: 100%
- Percent T3 sodium (Peak of Delta Curve) [3]: 100%
- Percent T3 sodium (Tmax) [3]: 100%
- AUC* (0-24) [3]: 1,193 ng/dLh
- Deltamax [3]: 69 ng/dL
- delta AUC [3]: 1,193 ng/dL·hr
- Peak of Delta Curve (Example 4, T3 sodium 4 μg/kg alone vs T4 sodium 4 μg/kg plus T3 sodium 4 μg/kg (T4:T3 1:1)): 65 ng/dL
- Percent T3 sodium (AUC 0-24) [4]: 100%
- Percent T3 sodium (Deltamax) [4]: 100%
- Percent T3 sodium (Peak of Delta Curve) [4]: 100%
- Percent T3 sodium (Tmax) [4]: 100%
- AUC* (0-24) [4]: 1,193 ng/dLh
- Deltamax [4]: 69 ng/dL
- Tmax [4]: 2.4 h
- delta AUC [4]: 1,193 ng/dL·hr
- Peak of Delta Curve (Example 5, T3 sodium 15 μg/kg alone vs T4 sodium 6 μg/kg plus T3 sodium 15 μg/kg (T4:T3 0.4:1)): 167 ng/dL
- Percent T3 sodium (AUC 0-24) [5]: 100%
- Percent T3 sodium (Deltamax) [5]: 100%
- Percent T3 sodium (Peak of Delta Curve) [5]: 100%
- Percent T3 sodium (Tmax) [5]: 100%
- AUC* (0-24) [5]: 1,732 ng/dLh
- Deltamax [5]: 170 ng/dL
- delta AUC [5]: 1,732 ng/dL·hr
- Peak of Delta Curve (Example 6, T3 sodium 15 μg/kg alone vs T4 sodium 1.5 μg/kg plus T3 sodium 15 μg/kg (T4:T3 0.1:1)): 138 ng/dL
- Percent T3 sodium (AUC 0-24) [6]: 100%
- Percent T3 sodium (Deltamax) [6]: 100%
- Percent T3 sodium (Peak of Delta Curve) [6]: 100%
- Percent T3 sodium (Tmax) [6]: 100%
- AUC* (0-24) [6]: 1,762 ng/dLh
- Deltamax [6]: 146 ng/dL
- delta AUC [6]: 1,762 ng/dL·hr
- Tmax (Sprague-Dawley, rat, 15 ug/kg, Example 6, T3 sodium 15 μg/kg vs T4 sodium 1.5 plus T3 sodium 15 μg/kg (0.1:1), read-out: Tmax): 5.6 h
- Tmax (Sprague-Dawley, rat, Example 1, T3 sodium 12 μg/kg vs T4 sodium 162 plus T3 sodium 12 μg/kg (13.5:1), read-out: Tmax): 5.2 h
- Tmax (Sprague-Dawley, rat, Example 2, T3 sodium 6 μg/kg vs T4 sodium 54 plus T3 sodium 6 μg/kg (9:1), read-out: Tmax): 2 h
- Tmax (Sprague-Dawley, rat, Example 3, T3 sodium 4 μg/kg vs T4 sodium 16 plus T3 sodium 4 μg/kg (4:1), read-out: Tmax): 2.4 h
- Tmax (Sprague-Dawley, rat, Example 5, T3 sodium 15 μg/kg vs T4 sodium 6 plus T3 sodium 15 μg/kg (0.4:1), read-out: Tmax): 4.6 h
SMILES: N[C@@H](Cc1cc(I)c(Oc2ccc(O)c(I)c2)c(I)c1)C(=O)O [T3 sodium, liothyronine sodium]
